Test results from PubChem BioAssay (NCI).
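96-well plates; 48 h exposure; 5 concentrations. Endpoints by linear interpolation between flanking doses. Not reached: highest tested concentration assigned. GI50 = concentration required for 50% inhibition of growth. TGI: total growth inhibition.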

Tests used:
Experiment in all cases: NCI tumour cell line growth inhibition, 48 h
[1] = test system: OVCAR-5 ovarian
[2] = test system: CCRF-CEM leukemia
[3] = test system: UACC-257 melanoma
[4] = test system: NCI-H226 lung
[5] = test system: A498 renal
[6] = test system: MOLT-4 leukemia
[7] = test system: SK-MEL-2 melanoma
[8] = test system: SN12C renal
[9] = test system: M14 melanoma
[10] = test system: SNB-19 CNS
[11] = test system: MCF7 breast
[12] = test system: COLO 205 colon
[13] = test system: SW-620 colon
[14] = test system: NCI-H23 lung
[15] = test system: KM12 colon
[16] = test system: T-47D breast
[17] = test system: EKVX NSCLC
[18] = test system: SF-539 CNS
[19] = test system: RXF 393 renal
[20] = test system: SK-OV-3 ovarian
[21] = test system: 786-0 renal
[22] = test system: OVCAR-8 ovarian
[23] = test system: OVCAR-3 ovarian
[24] = test system: MDA-MB-435
[25] = test system: PC-3 prostate
[26] = test system: HS 578T breast
[27] = test system: CAKI-1 renal
[28] = test system: MDA-MB-231 breast
[29] = test system: HL-60(TB) leukemia
[30] = test system: NCI-H522 lung
[31] = test system: HT29 colon
[32] = test system: HOP-92 NSCLC
[33] = test system: TK-10 renal
[34] = test system: U251 CNS
[35] = test system: HCC-2998 colon
[36] = test system: LOX IMVI melanoma
[37] = test system: UO-31 renal
[38] = test system: RPMI-8226 leukemia
[39] = test system: DU-145 prostate
[40] = test system: SK-MEL-5 melanoma
[41] = test system: K-562 leukemia
[42] = test system: SF-268 CNS
[43] = test system: HCT-15 colon
[44] = test system: A549 NSCLC
[45] = test system: ACHN renal
[46] = test system: NCI/ADR-RES ovarian
[47] = test system: SF-295 CNS
[48] = test system: MALME-3M melanoma
[49] = test system: SNB-75 CNS
[50] = test system: SR leukemia
[51] = test system: BT-549 breast
[52] = test system: HOP-62 NSCLC
[53] = test system: HCT-116 colon
[54] = test system: OVCAR-4 ovarian
[55] = test system: UACC-62 melanoma
[56] = test system: IGROV1 ovarian
[57] = test system: SK-MEL-28 melanoma
[58] = test system: NCI-H460 lung

With CC(=O)OCC1OC(OC2=C(CC=C(C)C)C(=O)c3ccccc3C2=O)C(OC(C)=O)C(OC(C)=O)C1OC(C)=O (stereo unspecified) the GI50 [1] was 4.57 µM, the TGI [1] was 16.2 µM and the GI50 [2] was 3.83 µM. The TGI [2] was over 100 µM, the GI50 [3] was 3.75 µM and the TGI [3] was 10.3 µM. It also gave a GI50 [4] of 5.58 µM, a TGI [4] of 28.3 µM and a GI50 [5] of over 33.6 µM. It also gave a TGI [5] of over 56.9 µM, a GI50 [6] of 2.5 µM and a TGI [6] of 6.59 µM. The GI50 [7] was 2.46 µM, the TGI [7] was 5.67 µM and the GI50 [8] was 7.01 µM. The TGI [8] was 23.9 µM, the GI50 [9] was 5.67 µM and the TGI [9] was 18.2 µM. For the same molecule, the GI50 [10] was 6.28 µM, the TGI [10] was 16.2 µM and the GI50 [11] was 2.06 µM. For the same molecule, the TGI [11] was 4.73 µM, the GI50 [12] was 11.5 µM and the TGI [12] was 24.2 µM. The GI50 [13] was 2.78 µM, the TGI [13] was 9.18 µM and the GI50 [14] was 4.13 µM. It also gave a TGI [14] of 16.9 µM, a GI50 [15] of 2.26 µM and a TGI [15] of 4.89 µM. It also gave a GI50 [16] of 1.93 µM, a TGI [16] of 4.24 µM and a GI50 [17] of 2.81 µM. For the same molecule, the TGI [17] was 11.6 µM, the GI50 [18] was 2.84 µM and the TGI [18] was 9.9 µM. For the same molecule, the GI50 [19] was 3.76 µM, the TGI [19] was 8.32 µM and the GI50 [20] was 12.9 µM. The TGI [20] was 25.9 µM, the GI50 [21] was 14.1 µM and the TGI [21] was 27.3 µM. It also gave a GI50 [22] of 3.23 µM, a TGI [22] of 11.9 µM and a GI50 [23] of 1.93 µM. For the same molecule, the TGI [23] was 3.58 µM, the GI50 [24] was 2.9 µM and the TGI [24] was 9.09 µM. It also gave a GI50 [25] of 1.97 µM, a TGI [25] of 6.08 µM and a GI50 [26] of 5.21 µM. For the same molecule, the TGI [26] was over 32.6 µM, the GI50 [27] was 6.55 µM and the TGI [27] was 17.7 µM. For the same molecule, the GI50 [28] was 2.63 µM, the TGI [28] was 8.41 µM and the GI50 [29] was 2.91 µM. The TGI [29] was 6.62 µM, the GI50 [30] was 1.88 µM and the TGI [30] was 4.85 µM. It also gave a GI50 [31] of 15.3 µM, a TGI [31] of 36.7 µM and a GI50 [32] of 1.52 µM. It also gave a TGI [32] of 3.77 µM, a GI50 [33] of 15.1 µM and a TGI [33] of 29.8 µM. It also gave a GI50 [34] of 2.92 µM, a TGI [34] of 11.5 µM and a GI50 [35] of 8.05 µM. The TGI [35] was 20.5 µM, the GI50 [36] was 2.58 µM and the TGI [36] was 8.01 µM. For the same molecule, the GI50 [37] was 2.68 µM, the TGI [37] was 10.7 µM and the GI50 [38] was 2.03 µM. It also gave a TGI [38] of 5.25 µM, a GI50 [39] of 10.9 µM and a TGI [39] of 22.9 µM. The GI50 [40] was 2.24 µM, the TGI [40] was 5.15 µM and the GI50 [41] was 2.72 µM. For the same molecule, the TGI [41] was over 30.4 µM, the GI50 [42] was 4.23 µM and the TGI [42] was 15.5 µM. The GI50 [43] was 3.91 µM, the TGI [43] was 18.1 µM and the GI50 [44] was 10.4 µM. The TGI [44] was 40 µM, the GI50 [45] was 3.16 µM and the TGI [45] was 10.1 µM. For the same molecule, the GI50 [46] was 3.07 µM, the TGI [46] was 10.2 µM and the GI50 [47] was 3.67 µM. The TGI [47] was 12.7 µM, the GI50 [48] was 4.96 µM and the TGI [48] was 19.6 µM. For the same molecule, the GI50 [49] was 3.35 µM, the TGI [49] was 11.4 µM and the GI50 [50] was 3.55 µM. It also gave a TGI [50] of 51.1 µM, a GI50 [51] of 2.25 µM and a TGI [51] of 6.95 µM. It also gave a GI50 [52] of 18 µM, a TGI [52] of 33.6 µM and a GI50 [53] of 1.6 µM. It also gave a TGI [53] of 3.05 µM, a GI50 [54] of 2.31 µM and a TGI [54] of 6.7 µM. It also gave a GI50 [55] of 2.45 µM, a TGI [55] of 7.15 µM and a GI50 [56] of 3.47 µM. For the same molecule, the TGI [56] was 8.21 µM, the GI50 [57] was 5.22 µM and the TGI [57] was 16.9 µM. It also gave a GI50 [58] of 4.12 µM and a TGI [58] of 15.5 µM.
